Data as given in ChEMBL document CHEMBL6087451, “Design, Synthesis, and Biological Evaluation of 2-Arylaminopyrimidine Derivatives as Dual Cathepsin L and JAK Inhibitors for the Treatment of Acute Lung Injury” (J Med Chem, 2025).
Calls of active or inactive are those of the source. The calls are words filed in the database; no cut-off is given here.

Legend:
[1] = Anti-inflammatory activity against HBE cells assessed as inhibition of LPS-induced IL-8 level at 5 uM pretreated for 30 mins followed by LPS treatment for 24 hrs by ELISA relative to control; assay type: functional; conditions: Homo sapiens, time 24.5 hrs
[2] = Anti-inflammatory activity against HBE cells assessed as inhibition of LPS-induced IL-6 level at 5 uM pretreated for 30 mins followed by LPS treatment for 24 hrs by ELISA relative to control; assay type: functional; conditions: Homo sapiens, time 24.5 hrs
RAW264.7 [3] = assay: Anti-inflammatory activity against mouse RAW264.7 cells assessed as inhibition of LPS-induced IL-6 level
RAW264.7 [4] = assay: Anti-inflammatory activity against mouse RAW264.7 cells assessed as inhibition of LPS-induced IL-1beta level
Procathepsin L [5] = molecular target: T1, Procathepsin L (Homo sapiens, UniProt P07711); assay: Inhibition of CTSL maturation in HBE cells pretreated for 30 mis followed by LPS treatment for 16 hrs by Western blot analysis; assay type: cell-based; conditions: dose 0.5-5 µM, time 16.5 hrs
Target sequence in this assay (P07711 114-333 limits assumed): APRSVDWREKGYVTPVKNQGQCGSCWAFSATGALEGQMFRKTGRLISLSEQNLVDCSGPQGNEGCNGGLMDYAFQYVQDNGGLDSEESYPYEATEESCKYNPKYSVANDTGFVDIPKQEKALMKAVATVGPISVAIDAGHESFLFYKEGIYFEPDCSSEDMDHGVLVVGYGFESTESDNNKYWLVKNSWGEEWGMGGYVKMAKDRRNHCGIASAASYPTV

Procathepsin L [6] = molecular target: T1, Procathepsin L; assay: Induction of thermal stabilization of pro-CTSL in protein lysate extracted from human THP-1 cells pretreated for 6 hrs followed by heat exposure at 37 to 62 degreeC for 3 mins by CETSA; assay type: subcellular; conditions: time 363.0 min
Target sequence in this assay (P07711 114-333 limits assumed): as above

Procathepsin L [7] = molecular target: T1, Procathepsin L; assay: Inhibition of recombinant human Cat L using f Z-Phe-Arg-AMC as substrate preincubated for 30 mins followed by substrate addition
Target sequence in this assay (P07711 whole entry): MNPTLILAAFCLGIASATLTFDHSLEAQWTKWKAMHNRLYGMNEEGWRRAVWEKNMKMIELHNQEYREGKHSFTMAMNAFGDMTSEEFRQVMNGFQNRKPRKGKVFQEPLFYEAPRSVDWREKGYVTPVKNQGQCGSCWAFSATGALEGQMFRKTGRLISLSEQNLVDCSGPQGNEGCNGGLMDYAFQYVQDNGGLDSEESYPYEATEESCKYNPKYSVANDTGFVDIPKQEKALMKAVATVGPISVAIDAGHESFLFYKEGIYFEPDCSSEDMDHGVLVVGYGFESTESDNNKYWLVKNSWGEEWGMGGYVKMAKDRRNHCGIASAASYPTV

HBE [8] = assay: Anti-inflammatory activity against HBE cells assessed as inhibition of LPS-induced p-Ikappa-Balpha level pretreated for 30 mis followed by LPS treatment for 16 hrs by Western blot analysis; assay type: functional, cell-based; conditions: Homo sapiens, dose 0.5-5 µM, time 16.5 hrs
HBE [9] = assay: Anti-inflammatory activity against HBE cells assessed as inhibition of LPS-induced p-p65 level pretreated for 30 mis followed by LPS treatment for 16 hrs by Western blot analysis; assay type: functional, cell-based; conditions: Homo sapiens, dose 0.5-5 µM, time 16.5 hrs
RAW264.7 [10] = assay: Cytotoxicity against mouse RAW264.7 cells assessed as cell viability at 0.5 to 5 uM; assay type: toxicity, cell-based; conditions: raw264.7, 5 µM, dose 0.5-5 µM
RAW264.7 [11] = assay: Anti-inflammatory activity against mouse RAW264.7 cells assessed as inhibition of LPS-induced IL-1beta level at 50 to 500 nM; assay type: functional, cell-based; conditions: dose 50-500 nM
RAW264.7 [12] = assay: Anti-inflammatory activity against mouse RAW264.7 cells assessed as inhibition of LPS-induced IL-6 mRNA level at 50 to 500 nM by RT-qPCR analysis; assay type: functional, cell-based; conditions: dose 50-500 nM
RAW264.7 [13] = assay: Anti-inflammatory activity against mouse RAW264.7 cells assessed as inhibition of LPS-induced IL-1beta mRNA level at 50 to 500 nM by RT-qPCR analysis; assay type: functional, cell-based; conditions: dose 50-500 nM
RAW264.7 [14] = assay: Anti-inflammatory activity against mouse RAW264.7 cells assessed as inhibition of LPS-induced TNF-alpha mRNA level at 50 to 500 nM by RT-qPCR analysis; assay type: functional, cell-based; conditions: dose 50-500 nM
RAW264.7 [15] = assay: Anti-inflammatory activity against mouse RAW264.7 cells assessed as inhibition of LPS-induced p38 phosphorylation at 50 to 500 nM by Western blot analysis; assay type: functional, cell-based; conditions: dose 50-500 nM
RAW264.7 [16] = assay: Anti-inflammatory activity against mouse RAW264.7 cells assessed as inhibition of LPS-induced iNOS level by Western blot analysis; assay type: functional, cell-based; conditions: dose 50-500 nM
RAW264.7 [17] = assay: Anti-inflammatory activity against mouse RAW264.7 cells assessed as inhibition of LPS-induced COX-2 level by Western blot analysis; assay type: functional, cell-based; conditions: dose 50-500 nM
Mus musculus [18] = assay: (§1) Anti-inflammatory activity in C57BL/6 mouse model of LPS-induced acute lung injury assessed as decrease in pulmonary edema in lung at 10 mg/kg, ip treated for 3 days followed by LPS treatment after 1 hr post-compound administration on fourth day measured after 18 hrs post-LPS treatment by H and E staining based analysis; assay type: functional, organism-based; conditions: time 91.0 hrs
Mus musculus [19] = assay: as §1, with “alveolar hemorrhage” for “pulmonary edema”; assay type: functional, organism-based; conditions: time 91.0 hrs
Mus musculus [20] = assay: as §1, with “inflammatory cell infiltration” for “pulmonary edema”; assay type: functional, organism-based; conditions: time 91.0 hrs
Mus musculus [21] = assay: as §1, with “disruption of epithelial cell structures” for “pulmonary edema”; assay type: functional, organism-based; conditions: time 91.0 hrs
Mus musculus [22] = assay: as §1, with “disruption of endothelial cell structures” for “pulmonary edema”; assay type: functional, organism-based; conditions: time 91.0 hrs
Mus musculus [23] = assay: (§2) Anti-inflammatory activity in C57BL/6 mouse model of LPS-induced acute lung injury assessed as decrease in wet to dry ratio in lung at 10 mg/kg, ip treated for 3 days followed by LPS treatment after 1 hr post-compound administration on fourth day measured after 18 hrs post-LPS treatment; assay type: functional, organism-based; conditions: time 91.0 hrs
Mus musculus [24] = assay: Anti-inflammatory activity in C57BL/6 mouse model of LPS-induced acute lung injury assessed as decrease in number of total cells in BALF at 10 mg/kg, ip treated for 3 days followed by LPS treatment after 1 hr post-compound administration on fourth day measured after 18 hrs post-LPS treatment; assay type: functional, organism-based; conditions: time 91.0 hrs
Mus musculus [25] = assay: Anti-inflammatory activity in C57BL/6 mouse model of LPS-induced acute lung injury assessed as decrease in total protein concentration in BALF at 10 mg/kg, ip treated for 3 days followed by LPS treatment after 1 hr post-compound administration on fourth day measured after 18 hrs post-LPS treatment; assay type: functional, organism-based; conditions: time 91.0 hrs
Mus musculus [26] = assay: as §2, with “decrease in TNF-alpha mRNA level in lung” for “decrease in wet to dry ratio in lung”, “post-LPS treatment by RT-qPCR analysis” for “post-LPS treatment”; assay type: functional, organism-based; conditions: time 91.0 hrs
Mus musculus [27] = assay: as §2, with “decrease in IL-6 mRNA level in lung” for “decrease in wet to dry ratio in lung”, “post-LPS treatment by RT-qPCR analysis” for “post-LPS treatment”; assay type: functional, organism-based; conditions: time 91.0 hrs
Mus musculus [28] = assay: as §2, with “decrease in IL-1beta mRNA level in lung” for “decrease in wet to dry ratio in lung”, “post-LPS treatment by RT-qPCR analysis” for “post-LPS treatment”; assay type: functional, organism-based; conditions: time 91.0 hrs
Mus musculus [29] = assay: In vivo inhibition of mature CTSL in lung of C57BL/6 mouse model of LPS-induced acute lung injury at 10 to 20 mg/kg, ip treated for 3 days followed by LPS treatment after 1 hr post-compound administration on fourth day measured after 18 hrs post-LPS treatment by Western blot analysis; assay type: functional, organism-based; conditions: dose 10-20 mg/kg, time 91.0 hrs
[30] = AUC (0 to t) in Sprague-Dawley rat at 3.5 mg/kg, iv measured for 24 hrs by LC-MS/MS analysis; assay type: ADME, organism-based; conditions: in vivo
[31] = AUC (0 to infinity) in Sprague-Dawley rat at 3.5 mg/kg, iv measured for 24 hrs by LC-MS/MS analysis; assay type: ADME, organism-based; conditions: in vivo
[32] = Half life in Sprague-Dawley rat at 3.5 mg/kg, iv measured for 24 hrs by LC-MS/MS analysis; assay type: ADME, organism-based; conditions: in vivo
[33] = Cmax in Sprague-Dawley rat at 3.5 mg/kg, iv measured for 24 hrs by LC-MS/MS analysis; assay type: ADME, organism-based; conditions: in vivo
[34] = AUC (0 to t) in Sprague-Dawley rat at 3.5 mg/kg, ip measured for 24 hrs by LC-MS/MS analysis; assay type: ADME, organism-based; conditions: in vivo
[35] = AUC (0 to infinity) in Sprague-Dawley rat at 3.5 mg/kg, ip measured for 24 hrs by LC-MS/MS analysis; assay type: ADME, organism-based; conditions: in vivo
[36] = Half life in Sprague-Dawley rat at 3.5 mg/kg, ip measured for 24 hrs by LC-MS/MS analysis; assay type: ADME, organism-based; conditions: in vivo
[37] = Cmax in Sprague-Dawley rat at 3.5 mg/kg, ip measured for 24 hrs by LC-MS/MS analysis; assay type: ADME, organism-based; conditions: in vivo
[38] = AUC (0 to t) in Sprague-Dawley rat at 3.5 mg/kg, po measured for 24 hrs by LC-MS/MS analysis; assay type: ADME, organism-based; conditions: in vivo
[39] = AUC (0 to infinity) in Sprague-Dawley rat at 3.5 mg/kg, po measured for 24 hrs by LC-MS/MS analysis; assay type: ADME, organism-based; conditions: in vivo
[40] = Half life in Sprague-Dawley rat at 3.5 mg/kg, po measured for 24 hrs by LC-MS/MS analysis; assay type: ADME, organism-based; conditions: in vivo
[41] = Cmax in Sprague-Dawley rat at 3.5 mg/kg, po measured for 24 hrs by LC-MS/MS analysis; assay type: ADME, organism-based; conditions: in vivo
[42] = Oral bioavailability in Sprague-Dawley rat at 3.5 mg/kg measured for 24 hrs by LC-MS/MS analysis; assay type: ADME, organism-based; conditions: in vivo
cells [43] = conditions: Homo sapiens, HBE
Description: Anti-inflammatory activity against HBE cells assessed as inhibition of LPS-induced IL-6 level pretreated for 30 mins followed by LPS treatment for 24 hrs by ELISA

cells [44] = conditions: Homo sapiens, HBE; remark: listed apart in the source
Description: Anti-inflammatory activity against HBE cells assessed as inhibition of LPS-induced IL-8 level pretreated for 30 mins followed by LPS treatment for 24 hrs by ELISA

IC50 (RAW264.7 [3]): 144 nM
IC50 (RAW264.7 [4]): 480 nM
inhibition (Procathepsin L [5]): Dose-dependent-effect
Activity (Procathepsin L [6]): Active
IC50 (Procathepsin L [7]): 820 nM
AUC(0-t) at 24 h [30]: 1630 ng·h/mL
AUC(0-inf) [31]: 1690 ng·h/mL
half-life [32]: 5.06 h
Cmax [33]: 504 ng/mL
AUC(0-t) at 24 h [34]: 1510 ng·h/mL
AUC(0-inf) [35]: 1580 ng·h/mL
half-life [36]: 5.19 h
Cmax [37]: 331 ng/mL
AUC(0-t) at 24 h [38]: 830 ng·h/mL
AUC(0-inf) [39]: 1050 ng·h/mL
half-life [40]: 6.48 h
Cmax [41]: 193 ng/mL
bioavailability [42]: 51.1%
IC50 (cells [43]): 1070 nM
IC50 (cells [44]): 2080 nM
Compound: Cc1ccc(Nc2nccc(-c3cn(C)c4ccccc34)n2)cc1N.Cl
inhibition at 5 µM [1]: 76%
inhibition at 5 µM [2]: 69%
inhibition (HBE [8]): Dose-dependent-effect
inhibition (HBE [9]): Dose-dependent-effect
Activity (RAW264.7 [10]): Non-toxic
inhibition (RAW264.7 [11]): Active
inhibition (RAW264.7 [12]): Active
inhibition (RAW264.7 [13]): Active
inhibition (RAW264.7 [14]): Active
inhibition (RAW264.7 [15]): Active; Result Indicates Compound Suppresses Mapk Pathway
inhibition (RAW264.7 [16]): Dose-dependent-effect
inhibition (RAW264.7 [17]): Dose-dependent-effect
Activity (Mus musculus [18]): Active
Activity (Mus musculus [19]): Active
Activity (Mus musculus [20]): Active
Activity (Mus musculus [21]): Active
Activity (Mus musculus [22]): Active
Activity (Mus musculus [23]): Active
Activity (Mus musculus [24]): Active
Activity (Mus musculus [25]): Active
Activity (Mus musculus [26]): Active
Activity (Mus musculus [27]): Active
Activity (Mus musculus [28]): Active
inhibition (Mus musculus [29]): Active
